The results in this text go back to US8741961B2 (Cutech S.r.l., priority 2007, dated 2014).

Format in all cases: cell-based
Assay [1] deals with Human anagen hair follicles. The experiment in a line: Growth (elongation) of isolated human hair follicles in organ culture. The note with it: for Effect on hair growth compared to other MAOI (in words): comparative experiment, Table 4. The protocol:
Human anagen hair follicles were isolated from scalp skin and transferred for cultivation in sterile 24-well plates using a modified Williams' Medium E. Cultivation took place for nine days, while the experimental treatment of the follicles started 24 hours after the beginning of cultivation.
Hair follicles taken from a single donor were selected for the experiments after 18 h of cultivation Only follicles showing a good vital stage and a growth of not less than 0.2 mm were considered suitable to be maintained in culture. 4 groups comprising 9 follicles were prepared, plated at the density of three hair follicles/plate. […] The growth of the hair follicles was studied by microphotography and subsequently determined by image analysis. All hair follicles were photographed every two days.

In assay [2] the test system is Human anagen hair follicles. As to the kind of experiment: Histological analysis of hair follicles (anagen/catagen phase) after 9 days of cultivation. Particulars: for Hair follicles in anagen phase / Hair follicles in catagen phase: after 9 days of cultivation. From the text:
Subsequently, the hair follicles were subjected to a histological analysis by colouring with haematossilin and eosin in order to verify the morphological state of the dermopapilla.

Assay [3] deals with Human anagen hair follicles. As to the kind of experiment: Number of proliferative (Ki-67) and apoptotic (Apoptag) cells in the dermopapilla of hair follicles. The note with it: for Number of cells in apoptotic state ± standard error / Number of cells in proliferative state ± standard error: after three days of cultivation, % of total cells in dermopapilla. As to the method: After three days of cultivation, samples were taken in order to determine the relative number of cells being in the proliferative or apoptotic state. The cells in apoptotic state were determined using an Apoptag Fluorescein In-situ Apoptosis Detection Kit (Chemicon International cod. S7110), while those in the proliferative state were marked with the antibody Ki-67 (monoclonal mouse anti-human Ki-67, clone MIB1, Dako Cytomation cod. M7240). The total number of cells in the dermopapilla was analysed by marking their nuclei by means of DAPI (4′,6-diamidino-2-phenylindol dihydrochloride). The percentage of cells in the proliferative or apoptotic state compared to the total number of cells was determined again by image analysis.

For assay [4], the system named is Human anagen hair follicles. The experiment in a line: Growth (elongation) of isolated human hair follicles in organ culture. Particulars: Table 1.
The mark [5] stands for this setting: 0.01 mM, day 1 of cultivation, Table 4 comparative experiment.
Setting [6] is: 0.01 mM, day 3 of cultivation, Table 4 comparative experiment.
The mark [7] stands for this setting: 0.01 mM, day 5 of cultivation, Table 4 comparative experiment.
Where [8] appears, read: 0.01 mM, day 7 of cultivation, Table 4 comparative experiment.
[9] abbreviates: 0.01 mM, day 9 of cultivation, Table 4 comparative experiment.
The mark [10] stands for this setting: 0.1 mM, day 1 of cultivation, Table 4 comparative experiment.
The mark [11] stands for this setting: 0.1 mM, day 3 of cultivation, Table 4 comparative experiment.
Setting [12] is: 0.1 mM, day 5 of cultivation, Table 4 comparative experiment.
Setting [13] is: 0.1 mM, day 7 of cultivation, Table 4 comparative experiment.
Where [14] appears, read: 0.1 mM, day 9 of cultivation, Table 4 comparative experiment.

In the case of `C#CCN(C)CCCOc1ccc(Cl)cc1Cl` [Chlorgyline], the “Growth of hair follicles - elongation ± standard error” value is reported as 0 mm in assay [1] (setting [5]); 0.35 ± 0.02 mm in assay [1] (setting [6]); 0.49 ± 0.02 mm in assay [1] (setting [7]); 0.61 ± 0.04 mm in assay [1] (setting [8]); 0.72 ± 0.07 mm in assay [1] (setting [9]); 0 mm in assay [1] (setting [10]). The “Growth of hair follicles - elongation ± standard error” value in assay [1] (setting [11]) is 0.33 ± 0.02 mm; in assay [1] (setting [12]), 0.55 ± 0.04 mm; in assay [1] (setting [13]), 0.67 ± 0.05 mm; in assay [1] (setting [14]), 0.79 ± 0.09 mm. In assay [1], the “Effect on hair growth compared to other MAOI (in words)” value is given as “did not exert any effect on hair growth”.
Consider `C#CCN(C)[C@H](C)Cc1ccccc1` [R-Selegiline], for which the “Growth of hair follicles - elongation ± standard error” value in assay [1] (setting [5]) is on record as 0 mm; in assay [1] (setting [6]), 0.35 ± 0.02 mm; in assay [1] (setting [7]) it was 0.52 ± 0.03 mm; in assay [1] (setting [8]), 0.62 ± 0.05 mm; in assay [1] (setting [9]) it was 0.80 ± 0.06 mm; in assay [1] (setting [10]), 0 mm. The “Growth of hair follicles - elongation ± standard error” value in assay [1] (setting [11]) is listed as 0.34 ± 0.02 mm; in assay [1] (setting [12]), 0.53 ± 0.04 mm; in assay [1] (setting [13]) it was 0.65 ± 0.06 mm; in assay [1] (setting [14]) it was 0.82 ± 0.12 mm.
For the compound `C#CCN(C)[C@@H](C)Cc1ccccc1` [S-Selegiline], the “Growth of hair follicles - elongation ± standard error” value in assay [1] (setting [5]) was 0 mm; in assay [1] (setting [6]), 0.33 ± 0.02 mm; in assay [1] (setting [7]) it was 0.49 ± 0.02 mm; in assay [1] (setting [8]), 0.69 ± 0.03 mm; in assay [1] (setting [9]), 0.84 ± 0.06 mm; in assay [1] (setting [10]) it was 0 mm. The “Growth of hair follicles - elongation ± standard error” value in assay [1] (setting [11]) turned out to be 0.35 ± 0.01 mm; in assay [1] (setting [12]), 0.55 ± 0.02 mm; in assay [1] (setting [13]), 0.70 ± 0.03 mm; in assay [1] (setting [14]) it was 0.75 ± 0.06 mm.
For the compound Pargyline, the “Growth of hair follicles - elongation ± standard error” value in assay [1] (0.01 mM, day 3 of cultivation, Table 1) is 0.51 ± 0.03 mm; in assay [1] (0.01 mM, day 5 of cultivation, Table 1), 0.80 ± 0.07 mm; in assay [1] (0.01 mM, day 9 of cultivation, Table 1) it was 1.47 ± 0.15 mm; in assay [1] (0.1 mM, day 1 of cultivation, Table 1), 0 mm; in assay [1] (setting [10]) it was 0 mm; in assay [1] (0.1 mM, day 3 of cultivation, Table 1) it was 0.55 ± 0.04 mm. In addition, the “Growth of hair follicles - elongation ± standard error” value in assay [1] (setting [11]) is recorded as 0.56 ± 0.02 mm; in assay [1] (0.1 mM, day 5 of cultivation, Table 1), 0.91 ± 0.12 mm; in assay [1] (setting [12]), 0.78 ± 0.04 mm; in assay [1] (0.1 mM, day 7 of cultivation, Table 1) it was 1.19 ± 0.17 mm; in assay [1] (setting [14]) it was 1.22 ± 0.08 mm; in assay [1] (0.5 mM, day 3 of cultivation, Table 1) it was 0.55 ± 0.05 mm. The “Growth of hair follicles - elongation ± standard error” value in assay [1] (0.5 mM, day 5 of cultivation, Table 1) was 0.81 ± 0.11 mm; in assay [1] (0.5 mM, day 9 of cultivation, Table 1), 1.17 ± 0.19 mm; in assay [4] (0.01 mM, day 1 of cultivation), 0 mm; in assay [4] (0.1 mM, day 9 of cultivation), 1.60 ± 0.19 mm; in assay [4] (0.5 mM, day 1 of cultivation), 0 mm. For the same compound, the “Effect on growth of the hair follicles (in words)” value in assay [1] (0.01 to 0.5 mM versus control, Table 1) was “significant increase in growth of the hair follicles”. The “Effect on hair growth compared to other MAOI (in words)” value in assay [1] was “the only active species”. For the same compound, the “Hair follicles in anagen phase” value is 78% in assay [2] (0.01 mM), 67% in assay [2] (0.1 mM) and 56% in assay [2] (0.5 mM). Further, the “Hair follicles in catagen phase” value is reported as 22% in assay [2] (0.01 mM), 33% in assay [2] (0.1 mM) and 44% in assay [2] (0.5 mM). Moreover, the “Effect on decline in the catagen phase (in words)” value in assay [2] (0.01 to 0.5 mM versus control) is “significantly delayed the decline in the catagen phase”. In addition, the “Number of cells in apoptotic state ± standard error” value was 0.93% ± 0.37 in assay [3] (0.01 mM) and 0.95% ± 0.08 in assay [3] (0.1 mM). Besides, the figures for the “Number of cells in proliferative state ± standard error” value in assay [3] (0.01 mM) and in assay [3] (0.1 mM) were 1.67% ± 0.4 and 2.89% ± 0.99, respectively. Moreover, the “Effect on number of apoptotic cells (in words)” value in assay [3] (versus control) was “only a marginal effect in increasing the number of apoptotic cells”. Further, the “Effect on number of cells in proliferative state (in words)” value in assay [3] (versus control) is reported as “significantly increases the number of cells in an active, proliferative state”.
